In publication PMC3735166, “Comparative Studies on Acetylcholinesterase Characteristics between the Aphids, Sitobion avenae and Rhopalosiphum padi” (Journal of Insect Science, 2013):
Structures can show the parent of a compound that is named as a salt. Where two headings read alike, the source gives them in different places.

How the values were obtained:
[1] = target: T1, crude extract AChE from R. padi (Rhopalosiphum padi, UniProt Q6BCH8); assay: Substrate specificity and kinetic analysis of crude extract AChE from R. padi; type: biochemical; conditions: compound as substrate, 30°C; for Km: read-out: Km ± SE
T1 sequence (Q6BCH8 18-652): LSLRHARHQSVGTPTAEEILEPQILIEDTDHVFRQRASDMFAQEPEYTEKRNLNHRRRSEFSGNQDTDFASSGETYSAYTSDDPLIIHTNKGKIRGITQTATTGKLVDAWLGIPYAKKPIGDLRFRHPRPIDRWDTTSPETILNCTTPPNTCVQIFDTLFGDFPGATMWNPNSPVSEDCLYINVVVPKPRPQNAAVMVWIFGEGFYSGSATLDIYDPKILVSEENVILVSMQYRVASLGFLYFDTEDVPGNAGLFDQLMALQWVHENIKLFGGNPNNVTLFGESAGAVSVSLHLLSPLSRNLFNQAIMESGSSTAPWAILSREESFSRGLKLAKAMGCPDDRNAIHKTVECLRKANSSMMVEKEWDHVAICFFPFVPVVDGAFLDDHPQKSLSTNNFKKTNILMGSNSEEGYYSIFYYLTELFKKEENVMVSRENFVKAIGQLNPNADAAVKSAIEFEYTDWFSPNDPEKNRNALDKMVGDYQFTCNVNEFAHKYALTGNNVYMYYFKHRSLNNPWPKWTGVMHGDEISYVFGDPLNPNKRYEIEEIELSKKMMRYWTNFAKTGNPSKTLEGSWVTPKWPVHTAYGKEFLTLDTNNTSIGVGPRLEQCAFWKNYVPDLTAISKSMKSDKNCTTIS
Protocol: (§1) Step 1: Preparation of crude extract. About 1.0 g apterous adults were homogenized in 10 mL ice-cold 0.1 M phosphate buffer (pH 7.5), containing 0.2 M NaCl and 0.5 % (v/v) Triton X-100 and three protease inhibitors (1 mM EDTA-Na2, 1 µM leupeptin, and 10 µM PMSF). The homogenate was filtered through cheesecloth and then centrifuged at 41,000 g, 4°C for 1 h. The supernatant, after being filtered through glass wool, was used as crude extract.
(§2) AChE activities were determined according to the method of Ellman et al. ([1961]) modified by Gao ([1987]), using ATCh, PrTCh, MeTCh and BuTCh as substrates. The AChE activities were determined at 6 substrate concentrations from 0.15625 to 5 mM based on the reaction at 30°C for 15 min and the reaction was stopped by the addition of 900 µL, DTNB (0.125 mM) with 40% ethanol, then the optical density (OD) was measured at 412 nm by spectrophotometer (Lambda Bio 40).
(§3) All statistical tests were performed by using SAS computer program (USA). Values of Michalelis-Menten constants (Km) and maximal velocities (Vmax) for four substrates were calculated by Enzfitter software (Biosoft, http://www.biosoft.com/).

[2] = target: T2, purified AChE from R. padi (Rhopalosiphum padi, UniProt Q6BCH8); assay: Substrate specificity and kinetic analysis of purified AChE from R. padi; type: biochemical; conditions: substrate 15 mM
T2 sequence (Q6BCH8 18-652): as above

[3] = target: T2, purified AChE from R. padi; assay: as above; type: biochemical; conditions: for Vmax ± SE / Km: compound as substrate, 30°C; for Km: read-out: Km ± SE
Protocol: (§4) Purification of AChE from both aphid species was performed by affinity chromatography using procainamide as the affinity ligand. The procedure used in this study was according to the method of Gao and Zhu ([2001]) with some modifications, as follows:
as §1
(§5) Step 2: Chromatography on sephadex G-25. […] The fractions (5 ml each) were collected at the flow rate of 45 mL/h at 4°C. All the fractions containing the AChE activity were collected as the enzyme resource for the next step.
(§6) Step 3: Procainamide affinity chromatography and removal of procainamide and condensation. The procainamide-based AChE affinity column was made according to the instructions from the manufacturer. […] The collected AChE dialyzed against 0.05 M, pH 7.5 phosphate buffer three times for 3 h. The enzyme was stored at 4°C and used as the enzyme source.
as §2, §3

[4] = target: T3, crude extract AChE from S. avenae (Sitobion avenae, UniProt Q66S75); assay: Substrate specificity and kinetic analysis of crude extract AChE from S. avenae; type: biochemical; conditions: compound as substrate, 30°C; for Km: read-out: Km ± SE
T3 sequence (Q66S75 23-664): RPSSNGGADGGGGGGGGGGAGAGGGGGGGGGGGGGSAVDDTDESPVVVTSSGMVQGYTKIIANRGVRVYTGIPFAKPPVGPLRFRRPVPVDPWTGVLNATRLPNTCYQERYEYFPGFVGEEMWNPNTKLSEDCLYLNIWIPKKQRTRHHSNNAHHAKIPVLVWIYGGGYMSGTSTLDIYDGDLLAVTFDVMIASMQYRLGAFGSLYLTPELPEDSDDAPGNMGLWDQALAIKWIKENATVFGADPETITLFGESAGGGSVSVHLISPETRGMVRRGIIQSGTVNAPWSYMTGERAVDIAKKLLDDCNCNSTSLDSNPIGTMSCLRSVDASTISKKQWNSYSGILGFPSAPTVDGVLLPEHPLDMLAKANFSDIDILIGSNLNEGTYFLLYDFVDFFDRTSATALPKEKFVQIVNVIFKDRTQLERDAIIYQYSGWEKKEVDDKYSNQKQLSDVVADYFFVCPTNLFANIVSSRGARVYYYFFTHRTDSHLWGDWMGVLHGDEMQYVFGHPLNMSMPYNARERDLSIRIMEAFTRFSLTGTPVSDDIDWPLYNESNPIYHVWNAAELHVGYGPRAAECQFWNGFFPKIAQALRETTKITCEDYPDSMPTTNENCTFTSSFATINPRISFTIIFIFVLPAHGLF
Protocol: as §1, §2, §3

[5] = target: T4, purified AChE from S. avenae (Sitobion avenae, UniProt Q66S75); assay: Substrate specificity and kinetic analysis of purified AChE from S. avenae; type: biochemical; conditions: for Vmax ± SE / Km: compound as substrate, 30°C; for Km: read-out: Km ± SE
T4 sequence (Q66S75 23-664): T3 sequence (Q66S75 23-664)
Protocol: as §4, §1, §5, §6, §2, §3

[6] = target: T4, purified AChE from S. avenae; assay: Inhibition of purified AChE from S. avenae (Ellman method, 5 min preincubation); type: biochemical
Protocol: as §4, §1, §5, §6, §2
(§7) The value of median inhibition concentration (I50) for the inhibitors were calculated based on log (inhibitor concentration) vs. probit (percentage of inhibition) linear regression.

[7] = target: T2, purified AChE from R. padi; assay: Inhibition of purified AChE from R. padi (Ellman method, 5 min preincubation); type: biochemical; conditions: for inhibitory percentage of AChE specific activity: inhibitor 10 µM
Protocol: as §4, §1, §5, §6, §2, §7

[8] = target: T1, crude extract AChE from R. padi; assay: Inhibition of crude extract AChE from R. padi (Ellman method, 5 min preincubation); type: biochemical; conditions: for inhibitory percentage of AChE specific activity: inhibitor 10 µM
Protocol: as §1, §2, §7

[9] = target: T3, crude extract AChE from S. avenae; assay: Inhibition of crude extract AChE from S. avenae (Ellman method, 5 min preincubation); type: biochemical; conditions: for I50 times higher in S. avenae than in R. padi: ratio of I50 values of Table 4
Protocol: as §1, §2, §7

[10] = target: T1, crude extract AChE from R. padi; conditions: comparison of the two aphid species; ref Lu and Gao 2009; cited from earlier work
[11] = system: S. avenae and R. padi; conditions: comparison of the two aphid species, ref Lu and Gao 2009, cited from earlier work
[12] = S. avenae, preincubation 5 min at 30°C, mean of three determinations, read-out: I50 ± SE (median inhibition concentration)
[13] = preincubation 5 min at 30°C, mean of three determinations, read-out: I50 ± SE (median inhibition concentration)

Row | SMILES | Vmax ± SE [1] [nmol/min/mg protein] | Km [1] [µM] | Vmax ± SE [3] [nmol/min/mg protein] | Km [3] [µM] | Vmax ± SE [4] [nmol/min/mg protein] | Km [4] [µM] | Vmax ± SE [5] [nmol/min/mg protein] | Km [5] [µM] | further results
1 | CC(=O)SCC[N+](C)(C)C.[I-] [ATCh, Acetylthiocholine iodide] | 1.27 ± 0.05 | 360 ± 50 | 37.58 ± 1.01 | 2180 ± 130 | 1.16 ± 0.11 | 650 ± 190 | 152.75 ± 3.63 | 2280 ± 120 | specific activity of purified AChE [2]: 20.3 nmol/min/mg; substrate concentration at which substrate inhibition was observed [3]: > 10 mM; substrate concentration at which substrate inhibition was observed [5]: > 10 mM
2 | C=CC[N+](C)(C)c1ccc(CCC(=O)CCc2ccc([N+](C)(C)CC=C)cc2)cc1.[Br-].[Br-] [BW284C51, 1,5-bis(4-allyldimethylammoniumphenyl)-pentan-3-one dibromide] | – | – | – | – | – | – | – | – | inhibitory percentage of AChE specific activity ([6]; S. avenae, inhibitor 10 µM): > 80%; IC50 [6, 12]: 1 ± 0.13 µM; I50 fold lower in S. avenae than in R. padi ([6]; from I50 values of Table 5): 0.4 fold; inhibitory percentage of AChE specific activity [7]: > 80%; IC50 [7, 13]: 2.57 ± 0.34 µM; inhibitory percentage of AChE specific activity [8]: about 50%; IC50 [8, 13]: 9.7 ± 1 µM; IC50 [9, 12]: 24.7 ± 4.9 µM; I50 times higher in S. avenae than in R. padi [9]: 2.5 times
3 | CCCC(=O)SCC[N+](C)(C)C.[I-] [BuTCh, butyrylthiocholine iodide] | 4.12 ± 1.34 | 5340 ± 2790 | 2.17 ± 0.09 | 670 ± 80 | 11.88 ± 3.88 | 15100 ± 6210 | 9.09 ± 0.14 | 1690 ± 60 | –
4 | CNC(=O)Oc1ccc2c(c1)[C@]1(C)CCN(C)[C@@H]1N2C [Eserine, eserine hemisulfate salt] | – | – | – | – | – | – | – | – | inhibitory percentage of AChE specific activity [7]: more than 90%; inhibitory percentage of AChE specific activity [8]: about 50%; I50 times higher in S. avenae than in R. padi [9]: 4.1 times
5 | CC(=O)SC(C)C[N+](C)(C)C (stereo not drawn) [MeTCh, acetyl-(β-methyl) thiocholine] | 1.10 ± 0.07 | 290 ± 80 | 31.58 ± 1.03 | 2450 ± 170 | 1.01 ± 0.10 | 400 ± 140 | 118.32 ± 5.64 | 2230 ± 230 | specific activity of purified AChE [2]: 17.7 nmol/min/mg; substrate concentration at which substrate inhibition was observed [3]: > 10 mM; substrate concentration at which substrate inhibition was observed [5]: > 10 mM
6 | Cc1nc(N(C)C)nc(OC(=O)N(C)C)c1C [Pirimicarb] | – | – | – | – | – | – | – | – | sensitivity of AChE to pirimicarb, R. padi versus S. avenae [10]: significantly higher in R. padi than in S. avenae; susceptibility / tolerance to pirimicarb in bioassays, S. avenae versus R. padi [11]: higher for S. avenae than for R. padi; susceptibility / tolerance to pirimicarb in bioassays, S. avenae versus R. padi ([11]; listed as pirimicarb): R. padi was more susceptible than S. avenae
7 | CCC(=O)SCC[N+](C)(C)C.[I-] [PrTCh, propionylthiocholine iodide] | 0.76 ± 0.03 | 180 ± 40 | 24.24 ± 0.30 | 850 ± 30 | 1.04 ± 0.15 | 570 ± 260 | 94.01 ± 4.41 | 930 ± 120 | –
